The compounds below were run against T1, human CB2R (Homo sapiens, UniProt P34972) (assay: CB2R mediated modulation of cAMP synthesis). Conditions: qualitative statement; found 'through the use of the above described assays'; CHO cells expressing human CB2R, forskolin-stimulated cAMP.
T1 construct: host or cells: CHO cells
Type: cell-based
Description: B. CB2R Mediated Modulation of cAMP Synthesis:
CHO cells expressing human CB2R (Euroscreen) were plated at a density of 5000 cells per well in 384 well plates and incubated overnight at 37° C. After removing the media, the cells were treated with test compounds diluted in stimulation buffer containing 1 mM IBMX, 0.25% BSA and 10 uM Forskolin. The assay was incubated for 30 minutes at 37° C. Cells were lysed and the cAMP concentration was measured using DiscoverX-XS cAMP kit, following the manufacturer's protocol. In this setting, agonists will decrease forskolin induced production of cAMP while inverse agonists will further increase forskolin induced production of cAMP. EC50 of agonists were calculated as follows. The maximal amount of cAMP produced by forskolin compared to the level of cAMP inhibited by 1 uM CP55940 is defined as 100%. The EC50 value of each test compound was determined as the concentration at which 50% of the forskolin-stimulated cAMP synthesis was inhibited. Data was analyzed using a four-parameter logistic model. (Model 205 of XLfit 4.0).

T1 sequence (P34972 whole entry): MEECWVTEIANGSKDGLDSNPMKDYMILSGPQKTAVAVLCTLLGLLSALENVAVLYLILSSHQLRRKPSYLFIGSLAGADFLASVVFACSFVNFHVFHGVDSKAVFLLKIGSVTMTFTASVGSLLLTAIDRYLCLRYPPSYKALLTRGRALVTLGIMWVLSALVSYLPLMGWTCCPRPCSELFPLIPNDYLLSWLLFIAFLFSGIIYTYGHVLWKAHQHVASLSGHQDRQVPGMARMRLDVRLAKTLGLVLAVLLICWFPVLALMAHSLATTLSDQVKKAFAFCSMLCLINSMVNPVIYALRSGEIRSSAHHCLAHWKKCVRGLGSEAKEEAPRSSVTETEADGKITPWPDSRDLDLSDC

Row | Structure (SMILES) | agonistic activity
1 | Cc1ccc(Cl)c(Nc2ccc(CN(C)CC(O)c3ccccc3)cc2)c1 (centres unmarked) [Example 3, 2-{[4-(2-chloro-5-methyl-phenylamino)-benzyl]-methyl-amino}-1-phenyl-ethanol] | agonistic activity
2 | Cc1ccc(Cl)c(Nc2ccc(CN(C)CC(O)c3ccccc3)cn2)c1 (centres unmarked) [Example 8, 2-{[6-(2-chloro-5-methyl-phenylamino)-pyridin-3-ylmethyl]-methyl-amino}-1-phenyl-ethanol] | agonistic activity
3 | Cc1ccccc1Nc1ccc(CN(C)CC(O)c2ccccc2)cc1 (centres unmarked) [Example 6, 2-[methyl-4(o-tolylamino-benzyl)-amino]-1-phenyl-ethanol] | agonistic activity
4 | CN(Cc1ccc(Nc2ccccc2)cc1)CC(O)c1ccccc1 (centres unmarked) [Example 2, 2-[methyl-(4-phenylamino-benzyl)-amino]-1-phenyl-ethanol] | agonistic activity
5 | CN(Cc1ccc(Nc2ccccc2Cl)nc1)CC(O)c1ccccc1 (centres unmarked) [Example 10, 2-{[6-(2-chloro-phenylamino)-pyridin-3-ylmethyl]-methyl-amino}-1-phenyl-ethanol] | agonistic activity
6 | CN(Cc1ccc(Nc2ccccc2Cl)cc1)C[C@H](O)c1ccccc1 [Example 5, (R)-2-{[4-(2-chloro-phenylamino)-benzyl]-methyl-amino}-1-phenyl-ethanol] | agonistic activity
7 | CN(Cc1ccc(Nc2ccccc2Cl)cc1)CC(O)c1ccccc1 (centres unmarked) [Example 4, 2-{[4-(2-chloro-phenylamino)-benzyl]-methyl-amino}-1-phenyl-ethanol] | agonistic activity
8 | Cc1ccc(C)c(Nc2ccc(CN(C)CC(O)c3ccccc3)cc2)c1 (centres unmarked) [Example 1, 2-{[4-(2,5-Dimethyl-phenylamino)-benzyl]-methyl-amino}-1-phenyl-ethanol] | agonistic activity
9 | Cc1ccc(C)c(Nc2ccc(CN(C)CC(O)c3ccccc3)cn2)c1 (centres unmarked) [Example 7, 2-{[6-(2,5-dimethyl-phenylamino)-pyridin-3-ylmethyl]-methyl-amino}-1-phenyl-ethanol] | agonistic activity
10 | Cc1ccc(Cl)cc1Nc1ccc(CN(C)CC(O)c2ccccc2)cn1 (centres unmarked) [Example 9, 2-{[6-(5-chloro-2-methyl-phenylamino)-pyridin-3-ylmethyl]-methyl-amino}-1-phenyl-ethanol] | agonistic activity

More lines, now with the values ahead:

Row | agonistic activity | Structure (SMILES)
11 | agonistic activity | CN(Cc1cnc2ccccc2c1)C[C@H](O)c1ccccc1 [Example 20, (R)-2-(Methyl-quinolin-3-ylmethyl-amino)-1-phenyl-ethanol]
12 | agonistic activity | CN(Cc1ccc(Nc2ccccc2)cc1)C[C@H](O)c1ccccc1 [Example 15, (R)-2-[Methyl-(4-phenylamino-benzyl)-amino]-1-phenyl-ethanol]
13 | agonistic activity | O[C@H](CNCc1cnc2ccccc2c1)c1ccccc1 [Example 22, (S)-1-Phenyl-2-[(quinolin-3-ylmethyl)-amino]-ethanol]
14 | agonistic activity | CN(Cc1ccc(Oc2ccccc2)nc1)C[C@@H](O)c1ccccc1 [Example 21, (S)-2-[Methyl-(6-phenoxy-pyridin-3-ylmethyl)-amino]-1-phenyl-ethanol]
15 | agonistic activity | Cc1ccccc1Nc1ccc(CN(C)CC(O)c2ccccc2)cn1 (centres unmarked) [Example 11, 2-[methyl-(6-o-tolylamino-pyridin-3-ylmethyl)-amino]-1-phenyl-ethanol]
16 | agonistic activity | CN(Cc1ccc(S(=O)(=O)c2ccccc2)cc1)C[C@H](O)c1ccccc1 [Example 17, (R)-2-[(4-Benzenesulfonyl-benzyl)-methyl-amino]-1-phenyl-ethanol]
17 | agonistic activity | CN(Cc1ccc(Oc2ccccc2)cc1)C[C@H](O)c1ccccc1 [Example 19, (R)-2-[Methyl-(4-phenoxy-benzyl)-amino]-1-phenyl-ethanol]

— patent publication US20090275611A1, “Compounds Which Modulate The CB2 Receptor” (BOEHRINGER INGELHEIM INTERNATIONAL GMBH, priority 2006, published 2009)
